Assay results as given in US8802161B2, “Herbal composition and method of use for the treatment of cancer” (Florida Agricultural and Mechanical University, priority 2003, dated 2014).
Where two headings read alike, the source gives them in different places. One block for each molecule: values may come before it.

How the values were obtained:
[1] = target: T1, LDH Type V (Oryctolagus cuniculus, UniProt P13491); assay: LDH enzyme kinetic activity (NADH oxidation); type: biochemical, rabbit
T1 construct: were determined in pure isolated enzyme preparations; from tissue; host or cells: rabbit muscle
From the text: FIG. 2—The toxicity of selected plant extracts and 2′,3,4′5,7-pentahydroxyflavone were previously determined on N-2A neuroblastoma cells prior to examination of their effects on kinetic activity of pyruvate kinase (PK) and LDH (data not shown). Briefly, the effects of experimental compounds on PK and LDH Type V, resembling that inherent to human cancer (Koukourakis et al., Br J Cancer. 2003; 89:877-85; Augoff and Grabowski. Pol Merkuriusz Lek 2004; 17:644-7; Nagai et al., Int J Cancer. 198815; 10-6; Evans et al., Biol. Chem. 1985; 260:306-14) were determined in pure isolated enzyme preparations. Briefly, PK Type III (from rabbit muscle [2.7.1.40]) was prepared in distilled water+HEPES (pH 7.5), at a concentration of 0.5 enzyme U/ml. Pyruvic acid was converted to lactate in the presence of LDH (from rabbit muscle, type V-S [EC 1.1.1.27]), at a concentration of 10 U/ml in the presence of adenosine, 2′,5′-diphospahte (ADP) (1.5 mM), β-NADH (1 mM)±magnesium sulfate (MgSO4) (5 mM). Experimental compounds were incubated with the enzyme solution for 10 minutes and addition of 1 mM phosphoenolpyruvate (PEP) prepared in distilled water started the reaction. Negative controls were established for all compounds tested. Enzyme activities were determined by spectrophotometric analysis using a UV spectrometer at 340 nm, by monitoring the oxidation of NADH. Experimental compounds that blocked the reaction through the PK/LDH cascade, were re-analyzed for LDH inhibition. LDH activity was achieved using an enzyme reaction mixture, minus PK or PEP, and starting the reaction with pyruvate (1 mM) prepared in buffered distilled water. Validation studies for LDH kinetic activity were established by monitoring the oxidation of NADH over time and concentration with dual detection quantifying lactic acid using a lactate oxidase based colorimetric enzymatic assay (Procedure No 735, Sigma Diagnostics, St. Louis, Mo.). FIG. 2A describes the effect of tumoricidal plant extracts and 2′,3,4′5,7-pentahydroxyflavone on inhibition of PK/LDH activity. The data represent reaction rate of NADH oxidation in the presence of enzyme/cofactor reagents+PEP (1 mM)±varying concentration of experimental compounds at 30 Min. […] Significance of difference from the controls were determined by a one-way ANOVA, followed by a Tukey mean comparison post hoc test, [*] group P<0.001,*P<0.001. FIG. 2B describes the effect of tumoricidal plant-extracts and 2′,3,4′5,7-pentahydroxyflavone on inhibition of LDH activity. The data represent reaction rate of NADH oxidation in the presence of enzyme/cofactor reagents+pyruvate (1 mM)±single level of experimental compound over time. […] Significance of difference from the control was determined by a two-way ANOVA, [*] P<0.001.

[2] = tested on: mitochondrial complex II; assay: kinetic activity of mitochondrial complex II in cancer cells; type: biochemical
[3] = tested on: complex IV; assay: mitochondrial respiration / O2 utilization through complex IV in cancer cells; type: cell-based
[4] = tested on: cancer cells; assay: lethality to cancer cells; type: cell-based
[5] = tested on: neuroblastoma and MCF-7 cell line; assay: toxicity of 3-BP versus 2,3-DMBQ: growth inhibition of MCF-7 cells and cell viability of N2A cells; type: cell-based; conditions: 24 hour incubation (FIGS. 3A,B)
Method: Briefly, cells were grown in Eagles MEM medium with […] and 10% calf serum and plated at 5′ 104 cells in 24 well plates. Appropriate positive (tamoxifen) and negative (no drug) controls were maintained simultaneously. After 24 hour incubation, cells were trypsined and collected by centrifugation, re-suspended in fresh media and cells were counted using trypan blue dye on a hemocytometer. […] FIG. 3B represents the evaluation of 3-BP versus 2,3-DMBQ on cell viability in N2A neuroblastoma cell line. Briefly, the experimental media consisted of DMEM (without phenol red), supplemented with 1.8% FBS (v/v), penicillin (100 U/ml)/streptomycin (0.1 mg/ml), 4 mM L-glutamine and 2 μM sodium pyruvate. Cells were plated at approximately 0.5×10^6 cells/ml in 96 well plates. A stock solution of each experimental compound was prepared in HBSS containing 5 mM HEPES, adjusted to a pH of 7.4. After 24 hours incubation at 37° C. and 5% CO2/atmosphere almar blue indicator dye was used to assess cell viability. Quantitative analysis of dye conversion was measured on a microplate fluorometer—Model 7620-version 5.02, Cambridge Technologies Inc. with settings fixed at [550/580], [excitation/emission], wavelengths. […]

[6] = tested on: mitochondrial complex's I and IV; assay: Vmax and Km of mitochondrial complexes I and IV; type: biochemical
[7] = tested on: N-2A neuroblastoma cells; assay: in vitro screening of >700 nutraceuticals for tumoricidal properties (loss of cell viability, 24 H); type: cell-based; conditions: 24 H incubation at 37° C.
Method: In brief, we conducted a large scale screening of over 700 commonly sold nutritional supplements for relative tumoricidal properties in vitro.
The data represent loss of cell viability after 24 H incubation at 37° C., and represent the Mean±S.E.M. . . . n=4

[8] = tested on: MD-MB-231 human mammary carcinoma; assay: efficacy against MD-MB-231 human mammary carcinoma xenograft; type: in vivo, Nu/Nu nude mice; conditions: in comparison to a vehicle control; formulation i.p./s.c., taxol i.v.
Method: Briefly, 6 week old female Nu/Nu mice were kept in an autoclaved micro isolator cage, maintained under pathogen free conditions. The tumors were ascetically surgically removed and transferred to a sterile Petri dish containing RPMI-1640. The homogenate was centrifuged, pelleted, resuspended into a concentration of 10 million cells/ml and injected into the mammary fat pad. The tumors were established by day 9 after implant and treatment began. The formula was prepared in sterile saline, and administered by i.p. injection for 3 days and s.c for the next 3 days, stopping at day 15. Taxol—(24 mg/kg in 2% PEG 300, 8% cremophor CL an 80% sterile Saline) was administered i.v. intermittently up to day 19 (days 10,13,16 and 19). […] The data represents tumor volume estimation (mm3) and expressed as the mean±S.E.M., n=4, for treatment groups, with n=1 for the control. […] The data represents weight gain (g) and are expressed as the mean±S.E.M., n=4, for treatment groups, with n=1 for the control.

LDH inhibition (LDH enzyme kinetic profiles) [1]: inhibitor
Compound: O=c1c(O)c(-c2ccc(O)cc2O)oc2cc(O)cc(O)c12 [2′,3,4′5,7-pentahydroxyflavone]

Compound: COC1=C(OC)C(=O)C(C/C=C(\C)CC/C=C(\C)CC/C=C(\C)CC/C=C(\C)CC/C=C(\C)CC/C=C(\C)CC/C=C(\C)CC/C=C(\C)CC/C=C(\C)CCC=C(C)C)=C(C)C1=O [CoQ10, ubiquinone (50)]
Vmax / kinetic activity of mitochondrial complex II [2]: increase | Vmax / kinetic activity of mitochondrial complex II ([2]; listed as ubiquinone (50)): augmenting | rate of mitochondrial respiration or O2 utilization through complex IV [3]: did not control | rate of mitochondrial respiration or O2 utilization through complex IV ([3]; listed as ubiquinone (50)): no positive effect | lethality to cancer cells [4]: not as lethal as expected

Compound: COC1=C(OC)C(=O)C(C)=CC1=O [DMBQ]
toxicity relative to bromopyruvate [5]: > 50 × | lethality to cancer cells [4]: lethal

Vmax and Km of mitochondrial complex's I and IV [6]: augmenting the Vmax and reduction of Km
Compound: Cc1cc2nc3c(=O)[nH]c(=O)nc-3n(C[C@H](O)[C@H](O)[C@H](O)COP(=O)(O)OP(=O)(O)OC[C@H]3O[C@@H](n4cnc5c(N)ncnc54)[C@H](O)[C@@H]3O)c2cc1C [FAD, flavin adenine dinucleotide]

Vmax and Km of mitochondrial complex's I and IV [6]: augmenting the Vmax and reduction of Km
Compound: Cc1cc2nc3c(=O)[nH]c(=O)nc-3n(C[C@H](O)[C@H](O)[C@H](O)COP(=O)(O)O)c2cc1C [FMN, flavin mononucleotide]

Compound: C[C@H]1[C@H](C)CC[C@]2(C)CC[C@]3(C)C(=CC[C@@H]4[C@@]5(C)CC[C@@H](O)[C@](C)(C(=O)O)[C@@H]5CC[C@]43C)[C@H]12 [boswellic acid]
tumoricidal potency (loss of cell viability) [7]: most potent tumoricidal

LDH inhibition (LDH enzyme kinetic profiles) [1]: LDH inhibitors
Compound: O=C(O)CC(O)(CC(=O)O)C(=O)O [citric acid]

Compound: COc1ccc(-c2cc(=O)c3c(O)cc(O[C@@H]4O[C@H](CO[C@@H]5O[C@@H](C)[C@H](O)[C@@H](O)[C@H]5O)[C@@H](O)[C@H](O)[C@H]4O)cc3o2)cc1O [diosmin]
tumoricidal potency (loss of cell viability) [7]: most potent tumoricidal

Compound: O=C(O[C@@H]1Cc2c(O)cc(O)cc2O[C@@H]1c1cc(O)c(O)c(O)c1)c1cc(O)c(O)c(O)c1 [epigallocatechin gallate]
LDH inhibition (LDH enzyme kinetic profiles) [1]: LDH inhibitors

Compound: CC(C)=CCC[C@]1(C)C=Cc2c(O)c3c(c(CC=C(C)C)c2O1)O[C@]12C(=C[C@@H]4C[C@H]1C(C)(C)O[C@@]2(C/C=C(/C)C(=O)O)C4=O)C3=O [gambogic acid]
tumoricidal potency (loss of cell viability) [7]: most potent tumoricidal

Compound: O=c1c(O)c(-c2ccc(O)c(O)c2)oc2cc(O)cc(O)c12 [quercetin]
LDH inhibition (LDH enzyme kinetic profiles) [1]: LDH inhibitors

Compound: CC(=O)O[C@H]1C(=O)[C@@]2(C)[C@H]([C@H](OC(=O)c3ccccc3)[C@]3(O)C[C@H](OC(=O)[C@H](O)[C@@H](NC(=O)c4ccccc4)c4ccccc4)C(C)=C1C3(C)C)[C@]1(OC(C)=O)CO[C@@H]1C[C@@H]2O [taxol®]
tumor growth and growth latency [8]: reduced tumor growth and growth latency

Vmax and Km of mitochondrial complex's I and IV [6]: augmenting the Vmax and reduction of Km
Compound: Cc1cc2nc3c(=O)[nH]c(=O)nc-3n(C[C@H](O)[C@H](O)[C@H](O)CO)c2cc1C [vitamin B2, 7,8-dimethyl-10-ribityl-isoalloxazine]
rate of mitochondrial respiration or O2 utilization through complex IV [3]: drastically potentiates
